Data as given in BindingDB's records for doi:10.1016/j.bmcl.2010.11.084 (Merck Frosst Centre For Therapeutic Research, 2011).

Assay: Antagonist activity at CRTH2 in human eosinophil assessed as effect of cellular shape change by EOS assay

Compound | IC50 [nM]
CN(C(=O)C1(c2ccc(F)cc2)CCCC1)[C@@H]1CCc2c(CC(=O)O)c3cccnc3n2C1 [(R)-2-(8-(1-(4-fluorophenyl)-N-methylcyclopentanecarboxamido)-6,7,8,9-tetrahydropyrido[3,2-b]indolizin-5-yl)acetic acid] | 3.4
CN([C@@H]1CCc2c(CC(=O)O)c3ccc(-c4ccc(F)cc4)nc3n2C1)S(=O)(=O)c1ccc(F)cc1 [(R)-2-(8-(4-fluoro-N-methylphenylsulfonamido)-2-(4-fluorophenyl)-6,7,8,9-tetrahydropyrido[3,2-b]indolizin-5-yl)acetic acid] | 16
CN([C@@H]1CCc2c(CC(=O)O)c3cccnc3n2C1)S(=O)(=O)c1ccc(F)cc1 [(R)-2-(8-(4-fluoro-N-methylphenylsulfonamido)-6,7,8,9-tetrahydropyrido[3,2-b]indolizin-5-yl)acetic acid] | 7
C[C@@H](C(=O)N(C)[C@@H]1CCc2c(CC(=O)O)c3cccnc3n2C1)c1ccc(F)cc1 [2-((R)-8-((R)-2-(4-fluorophenyl)-N-methylpropanamido)-6,7,8,9-tetrahydropyrido[3,2-b]indolizin-5-yl)acetic acid] | 1.2
CN(C(=O)C1(c2ccc(F)cc2)CC1(C)C)[C@@H]1CCc2c(CC(=O)O)c3cccnc3n2C1 (stereo partly drawn) [2-((8R)-8-(1-(4-fluorophenyl)-N,2,2-trimethylcyclopropanecarboxamido)-6,7,8,9-tetrahydropyrido[3,2-b]indolizin-5-yl)acetic acid] | 2.4
CN(C(=O)C1(c2ccc(F)cc2)CCC1)[C@@H]1CCc2c(CC(=O)O)c3cccnc3n2C1 [(R)-2-(8-(1-(4-fluorophenyl)-N-methylcyclobutanecarboxamido)-6,7,8,9-tetrahydropyrido[3,2-b]indolizin-5-yl)acetic acid] | 1.2
CN(C(=O)C(C)(C)c1ccc(F)cc1)[C@@H]1CCc2c(CC(=O)O)c3cccnc3n2C1 [(R)-2-(8-(2-(4-fluorophenyl)-N,2-dimethylpropanamido)-6,7,8,9-tetrahydropyrido[3,2-b]indolizin-5-yl)acetic acid] | 2.3
CN(C(=O)C1(c2ccc(F)cc2)CC1)[C@@H]1CCc2c(CC(=O)O)c3cccnc3n2C1 [(R)-2-(8-(1-(4-fluorophenyl)-N-methylcyclopropanecarboxamido)-6,7,8,9-tetrahydropyrido[3,2-b]indolizin-5-yl)acetic acid] | 3.1
